Measured values as given in patent US5716993A, “Anthranilic acid derivatives” (Eisai Co., Ltd., priority 1993, dated 1998).
pIC50: −log10 of the molar value.

target: T1, cGMP-PDE prepared from porcine aorta (Sus scrofa, UniProt A0A287B475); test: Enzyme inhibitory activity using cGMP-PDE prepared from porcine aorta; assay type: biochemical; conditions: CaM-independent cGMP-PDE fractions from porcine aorta; 1 μM cGMP substrate, 1 mM EGTA, DMSO 4% or below
T1 construct: The enzyme activity of CGMP-PDE prepared from porcine aorta was determined; from tissue; host or cells: porcine aorta, 100,000×g supernatant, DEAE-Toyopearl 650S fractions
Method: Enzyme Inhibitory activity using cGMP-PDE prepared from porcine aorta
The enzyme activity of CGMP-PDE prepared from porcine aorta was determined according to the method of Thompson et al. This determination was conducted in the presence of 1 mM EGTA by the use of 1 μM cGMP as the substrate. Each compound according to the present invention was dissolved in DMSO and added to the reaction system to determine the inhibitory activity thereof. The final concentration of DMSO in the reaction system was adjusted to 4% or below.
The cGMP-PDE was prepared as follows:
Porcine aorta was cut into fine pieces, followed by the addition of 10 times by volume as much buffer A (20 mM Tris/HCl, 2 mM Mg acetate, 1 mM dithiothreitol, 5 mM EDTA, 1400TIU/1 aprotinin, 10 mg/1 leupeptin, 1 mM benzamidine, 0.2 mM PMSF, pH7.5). The obtained mixture was homogenized and centrifuged at 100,000×g for one hour. The obtained supernatant was placed on a column of DEAE-Toyopearl 650S (a product of Tosoh, Tokyo, Japan), followed by the washing of the column with buffer B (50 mM Tris/HCl, 0.1 mM EGTA, 2 mM Mg acetate, 1 mM Dithiothreitol, 0.2 mM PMSF, pH7.5). The resulting column was subjected to gradient elution with 0.05 to 0.4M sodium chloride to obtain CaM-independent cGMP-PDE fractions.

pIC50	Compound
8.30	O=C(NCc1ccc2c(c1)OCO2)c1cc(Br)ccc1NC(=O)N1CCC(C(=O)O)CC1 [Example 122]
8.21	O=C1c2c(NC(=O)[C@H]3CC[C@H](C(=O)O)CC3)ccc(Br)c2CN1Cc1ccc2c(c1)OCO2 [Example 123, 4-Bromo-7-[(trans-4-carboxycyclohexanecarbonyl)amino]-N-(3,4-methylenedioxybenzyl)isoindoline-1-one]
7.90	COc1ccc(CNC(=O)c2cc(C#N)c(OC)cc2NC(=O)c2ccncc2)cc1Cl [Example 83, N-(3-Chloro-4-methoxybenzyl)-5-cyano-2-(isonicotinoylamino)-4-methoxybenzamide]
7.94	COc1ccc(CNC(=O)c2cc(S(=O)(=O)N(C)C)ccc2NC(=O)[C@H]2CC[C@H](C(=O)O)CC2)cc1Cl [Example 117, 2-[(trans-4-Carboxycyclohexanecarbonyl)amino]-N-(3-chloro-4-methoxybenzyl)-5-dimethylsulfamoylbenzamide]
7.74	COc1ccc(CNC(=O)c2cc(C#N)ccc2NC(=O)[C@@H]2CCC(=O)O2)cc1Cl [Example 136, N-(3-Chloro-4-methoxybenzyl)-5-cyano-2-[((S)-5-oxo-2-tetrahydrofurancarbonyl)amino]benzamide]
9.15	O=C(NCc1ccc2c(c1)OCO2)c1cc(Br)ccc1NC(=O)[C@H]1CC[C@H](C(=O)O)CC1 [Example 45, 5-Bromo-2-(trans-4-carboxycyclohexanecarbonyl)amino-N-(3,4-methylenedioxybenzyl)benzamide]
7.43	COc1cc(NC(=O)[C@H]2CC[C@H](C(=O)O)CC2)c(C(=O)NCc2ccc3c(c2)OCO3)cc1Br [Example 129, 5-Bromo-2-[(trans-4-carboxycyclohexanecarbonyl)amino]-4-methoxy-N-(3,4-methylenedioxybenzyl)benzamide]
8.14	COc1ccc(CNC(=O)c2cc(Br)c(N)cc2NC(=O)[C@H]2CC[C@H](C(=O)O)CC2)cc1Cl [Example 141, 4-Amino-5-bromo-2-[(trans-4-carboxycyclohexanecarbonyl)amino]-N-(3-chloro-4-methoxybenzyl)benzamide]
8.77	COc1ccc(CNC(=O)c2cc([N+](=O)[O-])ccc2NC(=O)[C@H]2CC[C@H](C(=O)O)CC2)cc1Cl [Example 114, 2-[(trans-4-Carboxycyclohexanecarbonyl)amino]-N-(3-chloro-4-methoxybenzyl)-5-nitrobenzamide]
8.54	COc1ccc(CNC(=O)c2cc(C#N)c(OC)cc2NC(=O)[C@H]2CC[C@H](C(=O)O)CC2)cc1Cl [Example 116]
7.92	COc1ccc(CNC(=O)c2cc(C#N)ccc2NC(=O)c2ccncc2)cc1Cl [Example 80, N-(3-Chloro-4-methoxybenzyl)-5-cyano-2-(isonicotinoylamino)benzamide]
7.54	O=C(Nc1ccc(Cl)cc1C(=O)NCc1ccc2c(c1)OCO2)c1ccncc1 [Example 9, 5-Chloro-N-(3,4-methylenedioxybenzyl)-2-(isonicotinoylamino)benzamide]
7.66	O=C(Nc1ccc(Br)cc1C(=O)NCc1ccc2c(c1)OCO2)c1ccncc1 [Example 85, 5-Bromo-2-(isonicotinoylamino)-N-(3,4-methylenedioxybenzyl)benzamide]
8.28	O=C(NCc1ccc2c(c1)OCO2)c1cc(Cl)ccc1NC[C@H]1CC[C@H](C(=O)O)CC1 [Example 47]
8.49	O=C(NCc1ccc2c(c1)OCO2)c1cc(Cl)ccc1NC(=O)[C@H]1CC[C@H](C(=O)O)CC1 [Example 39, 2-(trans-4-Carboxycyclohexanecarbonyl)amino-5-chloro-N-(3,4-methylenedioxybenzyl)benzamide]
7.67	COc1ccc(CNC(=O)c2cc(Cl)ccc2NC(=O)[C@H]2CC[C@H](C(=O)O)CC2)cc1C#N [Example 120, 2-[(trans-4-Carboxycyclohexanecarbonyl)amino]-5-chloro-N-(3-cyano-4-methoxybenzyl)benzamide]
8.11	COc1cc(CNC(=O)c2cc(Cl)ccc2NC(=O)[C@H]2CC[C@H](C(=O)O)CC2)ccc1Cl [Example 121, 2-[(trans-4-Carboxycyclohexanecarbonyl)amino]-5-chloro-N-(4-chloro-3-methoxybenzyl)benzamide]

pIC50	Compound
7.10	O=C(O)/C=C/C(=O)Nc1ccc(Cl)cc1C(=O)NCc1ccc2c(c1)OCO2 [Example 44, 2-(3-Carboxyacryoyl)amino-5-chloro-N-(3,4-methylenedioxybenzyl)benzamide]
9.15	COc1ccc(CNC(=O)c2cc(C#N)ccc2NC(=O)[C@H]2CC[C@H](C(=O)O)CC2)cc1Cl [Example 110, 2-[(trans-4-Carboxycyclohexanecarbonyl)amino]-N-(3-chloro-4-methoxybenzyl)-5-cyanobenzamide]
9.40	COc1ccc(CNC(=O)c2cc(Br)ccc2NC(=O)[C@H]2CC[C@H](C(=O)O)CC2)cc1Cl [Example 113, 5-Bromo-2-[(trans-4-carboxycyclohexanecarbonyl)amino]-N-(3-chloro-4-methoxybenzyl)benzamide]
8.17	O=C(NCc1ccc2c(c1)OCO2)c1cc(Cl)ccc1NC(=O)N1CCC(C(=O)O)CC1 [Example 38, 1-[[4-Chloro-2-[(3,4-methylenedioxybenzyl)carbamoyl]phenyl]carbamoyl]piperidine-4-carboxylic acid]
8.62	COc1ccc(CNC(=O)c2cc(C#N)ccc2NC(=O)N2CCC(O)CC2)cc1Cl [Example 74, 1-[[2-[(3-Chloro-4-methoxybenzyl)carbamoyl]-4-cyanophenyl]carbamoyl]-4-hydroxypiperidine]
9.05	COc1ccc(CNC(=O)c2cc(Cl)ccc2NC(=O)N2CCC(C(=O)O)CC2)cc1Cl [Example 43]
8.54	O=C(NCc1ccc2c(c1)OCO2)c1cc(-n2cccn2)ccc1NC(=O)[C@H]1CC[C@H](C(=O)O)CC1 [Example 126, 2-[(trans-4-Carboxycyclohexanecarbonyl)amino]-N-(3,4-methylenedioxybenzyl)-5-(1-pyrazolyl)benzamide]
7.69	O=C(NCc1ccc2c(c1)OCO2)c1cc(Cl)ccc1NCc1ccncc1 [Example 33, 5-Chloro-N-(3,4-methylenedioxybenzyl)-2-(4-picolyl)aminobenzamide]
7.61	COc1ccc(CNC(=O)c2cc(Br)c(OC)cc2NC(=O)[C@H]2CC[C@H](C(=O)O)CC2)cc1Cl [Example 115, 5-Bromo-2-[(trans-4-carboxycyclohexanecarbonyl)amino]-N-(8-chloro-4-methoxybenzyl)-4-methoxybenzamide]
8.85	O=C(O)c1ccc(C(=O)Nc2ccc(Cl)cc2C(=O)NCc2ccc3c(c2)OCO3)cc1 [Example 41, 2-(4-Carboxybenzoyl)amino-5-chloro-N-(3,4-methylenedioxybenzyl)benzamide]
7.78	O=C(NCc1ccc2c(c1)OCO2)c1cc(Cl)ccc1NC(=O)C1CCCCC1 [Example 19, 5-Chloro-2-[(cyclohexanecarbonyl)amino]-N-(3,4-methylenedioxybenzyl)benzamide]
7.84	COc1ccc(CNC(=O)c2cc(Br)ccc2NC(=O)c2ccncc2)cc1Cl [Example 81]
8.28	COc1ccc(CNC(=O)c2cc(Cl)ccc2NC(=O)[C@H]2CC[C@H](C(=O)O)CC2)cc1Cl [Example 112, 2-[(trans-4-Carboxycyclohexanecarbonyl)amino]-5-chloro-N-(3-chloro-4-methoxybenzyl)benzamide]
8.36	COc1ccc(CNC(=O)c2cc(C#N)ccc2NC(=O)[C@H]2CC[C@H](O)CC2)cc1Cl [Example 109, N-(3-Chloro-4-methoxybenzyl)-5-cyano-2-[(trans-4-hydroxycyclohexanecarbonyl)amino]benzamide]
7.72	O=C(NCc1ccc2c(c1)OCO2)c1cc(OC(F)(F)F)ccc1NC(=O)[C@H]1CC[C@H](C(=O)O)CC1 [Example 125, 2-[(trans-4-Carboxycyclohexanecarbonyl)amino]-N-(3,4-methylenedioxybenzyl)-5-trifluoromethoxybenzamide]
8.70	COc1ccc(CNC(=O)c2cc(Br)ccc2NC(=O)N2CCC(C(=O)O)CC2)cc1Cl [Example 111, 1-[[4-Bromo-2-[(3-chloro-4-methoxybenzyl)carbamoyl]phenyl]carbamoyl]piperidine-4-carboxylic acid]
